Measured values taken from US9861616B2, “Methods for treating respiratory diseases and formulations therefor” (priority 2013, dated 2018).

Experiments:
P. aeruginosa PA12 = experiment: MIC by microdilution with PaβN or EGTA, clinical isolate overexpressing efflux pumps; assay type: cell-based; conditions: Pseudomonas aeruginosa
Protocol: (§1) MICs of 36 clinical and laboratory strains of PA with known efflux phenotype are measured by microdilution in cation-adjusted Muller-Hinton broth (CA-MHB) or in RPMI medium (commonly used in eukaryotic cell culture). Phe-Arg-β-naphthylamide (PaβN, 50 mg/L) and EGTA 5 mM are used to inhibit efflux pumps and alter OM integrity, respectively. P. aeruginosa strain ATCC PAO1 is used as reference. PA12 is a clinical strain overexpressing the 4 main efflux systems (MexAB, MexCD, MexEF, MexXY), PA403 is a laboratory strain deleted in the genes coding for the 4 efflux systems. A series of reference strains or of clinical isolates for which the expression of genes coding for efflux pumps is known is also used for MICs determinations. MICs are measured by microdilution in MH broth or in RPMI medium (used for eukaryotic cells culture) supplemented with 10% of fetal calf serum, or in MH broth supplemented by increasing amounts of serum. EGTA (5 mM) was used as a chelating agent (disrupting outer membrane integrity) and PaβN (50 mg/L) as an unspecific efflux inhibitor.

IL-8 (CXCL8) release = experiment: LPS-induced IL-8 (CXCL8) release in PMA-differentiated U937 cells (ELISA); assay type: cell-based, human
Protocol: Effects of macrolides on lipopolysaccharide (LPS)-induced CXCL8 release in PMA-differentiated U937 cells. […] LPS-induced CXCL8 release was evaluated by ELISA. Values represent means of three experiments±SEM. ^##p<0.01 (vs. non-treatment control), *p<0.05, **p<0.01 (vs. treatment with LPS only).
(§2) The human monocytic cell line U937 was obtained from the American Type Culture Collection (ATCC, Rockville, Md.). PBMCs from COPD patients were obtained from Brompton hospital and separated by AccuSPIN (Sigma-Aldrich). Cells were cultured in complete growth medium (RPMI 1640) (Sigma-Aldrich) supplemented with 10% fetal bovine serum (FBS) and 1% L-glutamine at 37° C. in a humidified atmosphere with 5% CO2. U937 cells were differentiated into adherent macrophage-like morphology by exposure to PMA (50 ng/mL) for 48 hrs in complete growth medium. Cell viability was assessed microscopically by trypan blue staining. Cell toxicity was determined by MTT assay as needed. This study was approved by the ethics committee of the Royal Brompton Hospitals, and all subjects gave written informed consent.
TNFα and IL-8 concentrations in the supernatant of cell cultures were determined by sandwich ELISA according to the manufacturer's instructions (R&D Systems Europe, Abingdon, UK).
(§3) The results were expressed as the mean±SEM. Comparisons of data in two groups were performed using the Student's t test or the Wilcoxon signed rank test. Multiple comparisons were made by one-way ANOVA with post hoc test (Dunnett's) as appropriate. The difference was considered significant at p<0.05. IC50 values (50% inhibitory concentration) for macrolides for production of cytokines or MMP9 were calculated using Prism 4.0 (GraphPad Software Inc., San Diego, Calif.).

P. aeruginosa (PA) = experiment: MIC by microdilution, 36 clinical and laboratory strains with known efflux phenotype; assay type: cell-based
Protocol: as §1

MMP9 activity = experiment: PMA-induced MMP9 activation in U937 cells (gelatin zymography); assay type: cell-based, human
Protocol: Effects of macrolides on phorbol 12-myristate 13-acetate (PMA)-induced MMP9 activation in U937 cells. […] After 48 h supernatants were collected for zymography. MMP9 enzyme activity was measured by gelatin zymography. Data are expressed relative to standard.
as §2
MMP9 enzyme activity was measured by gelatin zymography. Cell culture supernatants were diluted with equal amount of Laemli sample buffer (Bio-Rad, Hertfordshire, UK) and loaded on a Novex® 10% Zymogram (Gelatin) gel (Invitrogen Ltd, Paisley, UK). After electrophoresis, gels were incubated and rinsed with Novex® zymogram renaturing buffer (Invitrogen) for 30 min at room temperature. The gels were then rinsed in Novex® zymogram developing buffer (Invitrogen) for 30 min at room temperature prior to overnight incubation in the developing buffer at 37° C. After incubation, the gels were stained using a Colloidal Blue Staining Kit (Invitrogen) to visualize the zymogen bands.
as §3

CC[C@H]1OC(=O)[C@H](C)[C@@H](O[C@H]2C[C@@](C)(OC)[C@@H](O)[C@H](C)O2)[C@H](C)[C@@H](O[C@@H]2O[C@H](C)C[C@H](N(C)C)[C@H]2O)[C@](C)(O)C[C@@H](C)C(=O)[C@H](C)[C@@H](O)[C@]1(C)O [ERY, erythromycin]
did not inhibit: effect on IL-8 production (IL-8 (CXCL8) release; 33 to 333 μM (FIG. 4))
no effect: effect on MMP9 activity (MMP9 activity)
> 333 µM: IC50 (IL-8 (CXCL8) release; Homo sapiens, U-937, U937 cells, at 333 μM, read-out: IC50, LPS-induced IL-8 release: NE at 333 μM) | IC50 (MMP9 activity; Homo sapiens, U-937, at 333 μM, read-out: IC50, PMA-induced MMP9 activation: NE at 333 μM)
512 µg/mL: MIC (P. aeruginosa PA12; PA12, PA12, CA-MHB, EGTA 5 mM) | MIC (P. aeruginosa PA12; PA12, PA12, CA-MHB, control conditions (CT)) | MIC (P. aeruginosa (PA); strain 1, efflux AB+, MHB) | MIC (P. aeruginosa (PA); strain 2, efflux CD+, MHB) | MIC (P. aeruginosa (PA); strain 4, efflux XY+, MHB) | MIC (P. aeruginosa (PA); strain 12, efflux AB + CD + EF + XY+, MHB) | MIC (P. aeruginosa (PA); strain 16, efflux AB + XY+, MHB) | MIC (P. aeruginosa (PA); strain 21, efflux AB+, MHB) | MIC (P. aeruginosa (PA); strain 22, efflux XY+, MHB) | MIC (P. aeruginosa (PA); strain 41, efflux CD+, MHB) | MIC (P. aeruginosa (PA); strain 48, efflux CD + EF + XY+, MHB) | MIC (P. aeruginosa (PA); strain 49, efflux CD + EF + XY+, MHB) | MIC (P. aeruginosa (PA); strain 63, efflux AB + EF + XY+, MHB) | MIC (P. aeruginosa (PA); strain 68, efflux AB + XY+, MHB) | MIC (P. aeruginosa (PA); strain 133, efflux EF + XY+, MHB) | MIC (P. aeruginosa (PA); strain 156, efflux EF + XY+, MHB) | MIC (P. aeruginosa (PA); strain 168B, efflux CD + XY+, MHB) | MIC (P. aeruginosa (PA); strain 207, efflux AB + EF + XY+, MHB) | MIC (P. aeruginosa (PA); strain 266B, efflux AB + CD+, MHB) | MIC (P. aeruginosa (PA); strain 333A, efflux AB + EF+, MHB) | MIC (P. aeruginosa (PA); strain 335, efflux AB + EF+, MHB) | MIC (P. aeruginosa (PA); strain 394, efflux XY−, MHB) | MIC (P. aeruginosa (PA); strain 434, efflux AB + CD + XY+, MHB) | MIC (P. aeruginosa (PA); strain PAO1, REFERENCE, MHB)
32 µg/mL: MIC (P. aeruginosa PA12; PA12, PA12, CA-MHB, PaβN 50 mg/L) | MIC (P. aeruginosa PA12; PA12, PA12, RPMI, PaβN 50 mg/L) | MIC (P. aeruginosa PA12; PA12, PA12, RPMI, control conditions (CT)) | MIC (P. aeruginosa (PA); strain 4, efflux XY+, RPMI) | MIC (P. aeruginosa (PA); strain 12, efflux AB + CD + EF + XY+, RPMI) | MIC (P. aeruginosa (PA); strain 16, efflux AB + XY+, RPMI) | MIC (P. aeruginosa (PA); strain 22, efflux XY+, RPMI) | MIC (P. aeruginosa (PA); strain 40, efflux EF+, RPMI) | MIC (P. aeruginosa (PA); strain 391, efflux EF−, RPMI) | MIC (P. aeruginosa (PA); strain 394, efflux XY−, RPMI) | MIC (P. aeruginosa (PA); strain 395, efflux HI−, RPMI) | MIC (P. aeruginosa (PA); strain PAO1, REFERENCE, RPMI)
2 µg/mL: MIC (P. aeruginosa PA12; PA12, PA12, RPMI, EGTA 5 mM) | MIC (P. aeruginosa (PA); strain 397, efflux AB−, RPMI)
4 µg/mL: MIC (P. aeruginosa (PA); strain 398, efflux CD−, RPMI) | MIC (P. aeruginosa (PA); strain 399, efflux AB − EF−, RPMI) | MIC (P. aeruginosa (PA); strain 400, efflux XY−, RPMI) | MIC (P. aeruginosa (PA); strain 401, ompH−, RPMI) | MIC (P. aeruginosa (PA); strain 403, efflux AB − CD − EF − XY−, RPMI) | MIC (P. aeruginosa (PA); strain 405, efflux AB − CD − EF − XY−, RPMI)
16 µg/mL: MIC (P. aeruginosa (PA); strain 11, efflux AB + CD+, RPMI) | MIC (P. aeruginosa (PA); strain 156, efflux EF + XY+, RPMI) | MIC (P. aeruginosa (PA); strain 392, efflux CD−, RPMI) | MIC (P. aeruginosa (PA); strain 396, ompH−, RPMI) | MIC (P. aeruginosa (PA); strain 397, efflux AB−, MHB) | MIC (P. aeruginosa (PA); strain 398, efflux CD−, MHB) | MIC (P. aeruginosa (PA); strain 399, efflux AB − EF−, MHB) | MIC (P. aeruginosa (PA); strain 400, efflux XY−, MHB) | MIC (P. aeruginosa (PA); strain 403, efflux AB − CD − EF − XY−, MHB)
8 µg/mL: MIC (P. aeruginosa (PA); strain 1, efflux AB+, RPMI) | MIC (P. aeruginosa (PA); strain 3, efflux EF+, RPMI) | MIC (P. aeruginosa (PA); strain 401, ompH−, MHB) | MIC (P. aeruginosa (PA); strain 405, efflux AB − CD − EF − XY−, MHB)
64 µg/mL: MIC (P. aeruginosa (PA); strain 21, efflux AB+, RPMI) | MIC (P. aeruginosa (PA); strain 41, efflux CD+, RPMI) | MIC (P. aeruginosa (PA); strain 48, efflux CD + EF + XY+, RPMI) | MIC (P. aeruginosa (PA); strain 49, efflux CD + EF + XY+, RPMI) | MIC (P. aeruginosa (PA); strain 63, efflux AB + EF + XY+, RPMI) | MIC (P. aeruginosa (PA); strain 68, efflux AB + XY+, RPMI) | MIC (P. aeruginosa (PA); strain 133, efflux EF + XY+, RPMI) | MIC (P. aeruginosa (PA); strain 266B, efflux AB + CD+, RPMI) | MIC (P. aeruginosa (PA); strain 333A, efflux AB + EF+, RPMI) | MIC (P. aeruginosa (PA); strain 335, efflux AB + EF+, RPMI)
